Source: patent US11066414B2, “Cot modulators and methods of use thereof” (Gilead Sciences, Inc., priority 2015, dated 2021)
Read-outs that look alike come from different tables or passages of the source.

What was measured:
Human Cot = Human Cot (Homo sapiens (Human), UniProt P41279); experiment: High Throughput Cot Biochemical Assay
TNFα = experiment: Cot Monocyte TNFα Cell Based Assay
[1] = IC50 HTRF, Cot HTRF (TR-FRET) biochemical assay
[2] = Homo sapiens, Monocyte, read-out: EC50 TNF, LPS-stimulated human monocytes, TNFα

Chain of Human Cot (P41279 30-397): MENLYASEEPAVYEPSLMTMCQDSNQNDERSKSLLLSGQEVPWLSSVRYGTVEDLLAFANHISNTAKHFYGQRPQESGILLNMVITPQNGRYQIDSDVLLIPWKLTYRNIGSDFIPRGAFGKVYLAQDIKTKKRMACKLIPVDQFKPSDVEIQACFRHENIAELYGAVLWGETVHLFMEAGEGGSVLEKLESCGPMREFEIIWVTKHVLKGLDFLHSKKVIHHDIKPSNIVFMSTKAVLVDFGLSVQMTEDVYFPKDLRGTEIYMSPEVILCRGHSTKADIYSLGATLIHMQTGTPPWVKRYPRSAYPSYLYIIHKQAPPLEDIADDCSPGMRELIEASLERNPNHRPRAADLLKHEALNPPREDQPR

IC50 (Human Cot; [1]) [nM] | EC50 (TNFα; [2]) [nM] | Structure (SMILES) | also measured
4 | 131 | CC(C)(C)CNc1c(C#N)cnc2c(Cl)cc(N[C@H](c3cn(C4(C(F)F)CC4)nn3)c3cccc4c(=O)[nH]ccc34)cc12 [Example 765, (S)-8-chloro-6-(((1-(1-(difluoromethyl)cyclopropyl)-1H-1,2,3-triazol-4-yl)(1-oxo-1,2-dihydroisoquinolin-5-yl)methyl)amino)-4-(neopentylamino)quinoline-3-carbonitrile] | 
3 | 64 | Cc1nc(F)ccc1[C@H](Nc1cc(Cl)c2ncc(C#N)c(NCC(C)(C)C)c2c1)c1cn(C2(C(=O)N(C)C)CC2)nn1 [Example 553, (S)-1-(4-(((8-chloro-3-cyano-4-(neopentyl-amino)quinolin-6-yl)amino)(6-fluoro-2-methylpyridin-3-yl)methyl)-1H-1,2,3-triazol-1-yl)-N,N-dimethylcyclopropane-1-carboxamide] | 
6 | 668 | N#Cc1cnc2c(Cl)cc(N[C@@H](c3cccnc3)c3cn(C4COC4)nn3)cc2c1Nc1cccc(Cl)c1 [Example 196, (S)-8-chloro-4-((3-chlorophenyl)amino)-6-(((1-(oxetan-3-yl)-1H-1,2,3-triazol-4-yl)(pyridin-3-yl)methyl)amino)quinoline-3-carbonitrile] | 
10 | 766 | C[C@@H](Nc1c(C#N)cnc2c(Cl)cc(N[C@@H](c3cccnc3)c3c[nH]nn3)cc12)c1ccccc1 [Example 255, 8-chloro-4-(((R)-1-phenylethyl)amino)-6-(((S)-pyridin-3-yl(1H-1,2,3-triazol-4-yl)methyl)amino)quinoline-3-carbonitrile] | 
30 | 437 | Cc1ccc([C@H](Nc2cc(Cl)c3ncc(C#N)c(NCC(C)(C)C)c3c2)c2cn(C3(C(F)(F)F)CC3)nn2)c(F)n1 [Example 688, (S)-8-chloro-6-(((2-fluoro-6-methylpyridin-3-yl)(1-(1-(trifluoromethyl)-cyclopropyl)-1H-1,2,3-triazol-4-yl)methyl)amino)-4-(neopentylamino)quinoline-3-carbonitrile] | 
 |  | COc1nccc2c([C@H](Nc3cc(C#N)c4ncc(C#N)c(NCC(C)(C)C(F)(F)F)c4c3)c3cn(C45CC(C4)C5)nn3)cccc12 [Example 820, (S)-6-(((1-(bicyclo[1.1.1]pentan-1-yl)-1H-1,2,3-triazol-4-yl)(1-methoxylsoquinolin-5-yl)methyl)amino)-4-((3,3,3-trifluoro-2,2-dimethylpropyl)amino)quinoline-3,8-dicarbonitrile] | IC50 (Human Cot; read-out: IC50 HTRF, Cot HTRF (TR-FRET KinEASE) biochemical assay, 400 μM ATP): 3 nM; EC50 (TNFα; read-out: EC50 TNF, LPS-stimulated human monocytes, TNFα TR-FRET): 33 nM
 |  | Cn1ccc2c([C@H](Nc3cc(C#N)c4ncc(C#N)c(NCC(C)(C)C(F)(F)F)c4c3)c3cn(C45CC(C4)C5)nn3)cccc2c1=O [Example 883, (S)-6-(((1-(bicyclo[1.1.1]pentan-1-yl)-1H-1,2,3-triazol-4-yl)(2-methyl-1-oxo-1,2-dihydroisoquinolin-5-yl)methyl)amino)-4-((3,3,3-trifluoro-2,2-dimethylpropyl)amino)quinoline-3,8-dicarbonitrile] | IC50 (Human Cot; IC50 HTRF, Cot HTRF (TR-FRET KinEASE) biochemical assay, 400 μM ATP): 1 nM; EC50 (TNFα; Homo sapiens, Monocyte, read-out: EC50 TNF, LPS-stimulated human monocytes, TNFα TR-FRET): 13 nM
182 | > 10000 | [2H]C([2H])([2H])C([2H])([2H])[C@H](Nc1c(C#N)cnc2c(Cl)cc(N[C@@]([2H])(c3ccc(F)nc3)c3cn(C4CC4)nn3)cc12)c1ccccc1 [Example 107, 8-chloro-6-(((S)-(1-cyclopropyl-1H-1,2,3-triazol-4-yl)(6-fluoropyridin-3-yl)methyl-d)amino)-4-(((S)-1-phenyl-propyl-2,2,3,3,3-d5)amino)quinoline-3-carbonitrile] | 
3 | 65 | Cc1ncsc1[C@H](Nc1cc(C#N)c2ncc(C#N)c(NCC(C)(C)C)c2c1)c1cn(C2(C(F)F)CC2)nn1 [Example 640, (R)-6-(((1-(1-(difluoromethyl)-cyclopropyl)-1H-1,2,3-triazol-4-yl)(4-methylthiazol-5-yl)methyl)amino)-4-(neopentylamino)quinoline-3,8-dicarbonitrile] | 
